{
  "source": "patent US20240041823A1",
  "about": "“USE OF MYCOLACTONE (MLN) AND DERIVATIVES THEREOF FOR TREATMENT OF MICROBIAL INFECTIONS” (priority 2022, published 2024)",
  "system": "SARS-CoV-2 variants of concern (VOC)",
  "assay_type": "cell-based",
  "settings": "plaque assay",
  "data": [
    {"substance": "mycolactone [MLN]", "values": [
      {"measurement": "IC50 fold lower than Remdesivir", "result": "9-18 fold"}
    ]}
  ]
}
